SMILES strings stand for the structures.

What is called Emax is the maximal effect, on the per cent scale that the assay sets.

T1 sequence (P13945 whole entry): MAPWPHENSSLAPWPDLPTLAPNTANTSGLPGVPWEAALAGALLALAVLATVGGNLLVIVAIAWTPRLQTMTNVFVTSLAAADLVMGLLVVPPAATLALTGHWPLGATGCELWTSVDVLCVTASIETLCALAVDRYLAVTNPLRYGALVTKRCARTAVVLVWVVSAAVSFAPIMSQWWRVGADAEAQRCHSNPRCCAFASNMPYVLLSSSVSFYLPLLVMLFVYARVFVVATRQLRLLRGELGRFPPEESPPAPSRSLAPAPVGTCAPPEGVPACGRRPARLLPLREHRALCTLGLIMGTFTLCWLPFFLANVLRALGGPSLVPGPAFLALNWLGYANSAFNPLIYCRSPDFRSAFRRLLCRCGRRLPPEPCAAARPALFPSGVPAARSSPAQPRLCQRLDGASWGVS

One assay addresses T1, human β3 adrenergic receptor (Homo sapiens, UniProt P13945).
T1 construct: expressed in transfected cells
As to the kind of experiment: whole cell receptor coupled c-AMP assay (Emax relative to isoproterenol). The format is cell-based. Conditions: % intrinsic activity: maximal response divided by isoproterenol maximal response times 100; transfected CHO cells; average of at least 3 runs. An excerpt:
The genes encoding the human β1-adrenergic receptor (Frielle et al., Proc. Natl. Acad. Sci., 84:7920–7924, 1987), the human β2-adrenergic receptor (Kobika et al., Proc. Natl. Acad. Sci., 84:46–50, 1987, Emorine et al., Proc. Natl. Acad. Sci., 84:6995–6999, 1987) and the human β3 adrenergic receptor (Granneman et al., Molecular Pharmacology, 44(2):264–70, 1993) are individually subcloned into a phd expression vector (Grinnell et al., Bio/Technology, 5:1189–1192, 1987) and transfected into the DXB-11 Chinese hamster ovary (CHO) cell line by calcium phosphate precipitation methodology. The stably transfected cells are grown to 95% confluency in 95% Dulbecco's modified Eagles Medium (DMEM), 5% fetal bovine serum and 0.01% proline. Media is removed and the cells are washed with phosphate buffered (pH 7.4) saline (without magnesium and calcium). Cells are then lifted using an enzyme free cell dissociation solution (Specialty Media, Lavallette, N.J.) and pelleted by centrifugation.
Cells from each of the above cell lines are resuspended and added (20,000/well) to a 96-well plate. Cells are incubated at 37° C. with representative compounds of the invention for 20 minutes in buffer (Hank's balanced salt solution, 10 mM HEPES, 0.1% BSA, 1 mM L-ascorbic acid, 0.2% dimethyl sulfoxide, 1 mM 3-isobutyl-1-methylxanthine, pH 7.4). After halting the incubation with quench buffer (50 mM Na Acetate, 0.25% Triton X-100, pH 5.8), the c-AMP level is quantified by scintillation proximity assay (SPA) using a modification of the commercially available c-AMP kit (Amersham, Arlington Heights, Ill.) with rabbit anti-cAMP antibody (ICN Biomedicals, Aurora, Ohio) for the kit.
Sigmoidal dose response curves, from the whole cell receptor coupled c-AMP assay are fit to a four parameter logistic equation using non linear regression: y=(a−d)/(1+(Dose/c)^b)+d where a and d are responses at zero and maximal dose, b is the slope factor and c is the EC50 as previously described (DeLean et al., Am. J. Physiol., 235, E97-E102, 1978). EC50 is assessed as the concentration producing 50% of the maximum response to each agonist.
Isoproterenol is accepted in the art as a non-selective β3 agonist and is widely used as a comparator in evaluating the activity of compounds. See Trends in Pharm. Sci., 15:3, 1994. The % intrinsic activity (Emax) of representative compounds of the invention is assessed relative to isoproterenol by the compound's maximal response divided by the isoproterenol maximal response times 100.
For the compound `CC(C)(Cc1c[nH]c2c(OCC#N)cccc12)NC[C@H](O)COc1ccccc1-n1cccc1` [Example 1], the “Emax (%) ± SEM” value is on record as 64.1 ± 4.5%.
`CC(C)(Cc1c[nH]c2c(OCC(=O)[O-])cccc12)NC[C@H](O)COc1ccccc1-c1cccs1.[Na+]` [Example 225]: the “Emax (%) ± SEM” value was 78.1 ± 4.6%.
Still for that read-out and setting: to `CC(C)(Cc1c[nH]c2c(CCC#N)cccc12)NC[C@H](O)COc1ccccc1-c1cccs1` [Example 144] belongs 73.3 ± 5.9%; to `C[C@@H](Cc1c[nH]c2c(OCC#N)cccc12)NC[C@H](O)COc1ccccc1-c1nncs1` [Example 161], 21.7 ± 3.1%.
For the compound `CC(C)(Cc1c[nH]c2cc(C#N)ccc12)NC[C@H](O)COc1ccccc1-c1cccs1` [Example 77], the “Emax (%) ± SEM” value amounted to 73.9 ± 1.3%.
Same read-out and setting: to `C[C@H](CN1CCc2ccccc21)NC[C@H](O)COc1ccccc1-c1ccon1` [Example 129] belongs 35.2 ± 3.3%; to `CC(C)(Cc1c[nH]c2c(C(=O)O)cccc12)NC[C@H](O)COc1ccccc1-c1ccc(C#N)s1` [Example 90], 90.4 ± 3.8%; to `CC(C)(Cc1c[nH]c2c(OCC(=O)NS(C)(=O)=O)cccc12)NC[C@H](O)COc1ccccc1-c1cccs1` [Example 176], 79.0 ± 2.9%.
The same measure, in the same setting: under `CC(=O)c1cccc(-c2cccc3c(CC(C)(C)NC[C@H](O)COc4ccccc4-c4cccs4)c[nH]c23)c1` [Example 46] stands 68.2 ± 2.2%; under `COC(=O)c1cccc2[nH]cc(CC(C)(C)NC[C@H](O)COc3ccccc3-c3cccs3)c12` [Example 69], 39.1 ± 7.1%.
The same measure, in the same setting: under `CC(C)(Cc1c[nH]c2c(NS(C)(=O)=O)cccc12)NC[C@H](O)COc1ccccc1-c1ccon1` [Example 28] stands 58.5 ± 0.5%; under `CC(C)(Cc1c[nH]c2ccccc12)NC[C@H](O)COc1ccccc1-n1cccc1` [Example 32], 58.9 ± 1.9%; under `Cc1cc2c(OCC#N)cccc2n1C[C@@H](C)NC[C@H](O)COc1ccccc1-c1cccs1` [Example 156], 41.9 ± 9.3%.
Take `CC(C)(Cc1c[nH]c2cc(C(=O)O)ccc12)NC[C@H](O)COc1ccccc1-c1ccsc1` [Example 62]: the “Emax (%) ± SEM” value turned out to be 63.8 ± 0.5%.
On the same count and under the same terms, under `CC(C)(Cc1c[nH]c2c(OCC#N)cccc12)NC[C@H](O)COc1ccccc1-c1cnco1.O=C(O)C(F)(F)F` [Example 7] stands 58.4 ± 1.7%; under `Cc1ccc(-c2ccccc2OC[C@@H](O)CNC(C)(C)Cc2c[nH]c3c(OCC#N)cccc23)s1.O=C(O)C(F)(F)F` [Example 14], 75.2 ± 3.0%; under `CC(C)(Cc1c[nH]c2c(OCC#N)cccc12)NC[C@H](O)COc1ccccc1-c1cocn1.O=C(O)C(F)(F)F` [Example 6], 55.0 ± 3.4%.
In the case of `CC(C)(Cc1c[nH]c2c(OCC#N)cccc12)NC[C@H](O)COc1ccccc1-c1cccs1` [Example 101], the “Emax (%) ± SEM” value is given as 76.5 ± 12.6%.
For `CC(C)(Cc1c[nH]c2c(NS(=O)(=O)c3ccccc3)cccc12)NC[C@H](O)COc1ccccc1-c1ccon1` [Example 26], the “Emax (%) ± SEM” value is listed as 70.9 ± 5.4%.
Still for that read-out and setting: under `CC(C)(Cc1c[nH]c2cc(C#N)ccc12)NC[C@H](O)COc1ccccc1-c1ccon1` [Example 78] stands 58.6 ± 0.9%.
Still for that read-out and setting: under `O[C@@H](CNCCn1ccc2ccccc21)COc1ccccc1-c1cccs1` [Example 64] stands 22.2 ± 4.5%.

Staying with this assay, now noted: CHO, % intrinsic activity relative to isoproterenol; transfected CHO cells.
On to `CC(C)(Cc1c[nH]c2c(OCC(=O)O)cccc12)NC[C@H](O)COc1ccccc1-n1cccc1` [Example 203], for which the Emax is 73.8%.

Still in this assay, the particulars now being: CHO, % intrinsic activity: maximal response divided by isoproterenol maximal response times 100; transfected CHO cells; average of at least 3 runs.
`CC(C)(Cc1c[nH]c2c(OCC(=O)O)cccc12)NC[C@H](O)COc1ccccc1-c1ccno1` [Example 233] showed an Emax of 52.4 ± 6%.
Same read-out and setting: to `CC(C)(Cc1c[nH]c2c(CCc3ccc(-c4nnn[nH]4)cc3)cccc12)NC[C@H](O)COc1ccccc1-c1cccs1` [Example 251] belongs 86.3 ± 3.4%; to `CC(C)(Cc1c[nH]c2c(C(=O)O)cccc12)NC[C@H](O)COc1ccccc1-c1cccs1` [Example 241], 70.1 ± 0.6%.

For the origin of these results see patent US7208505B2, “β3 adrenergic agonists” (Eli Lilly and Company, priority 2001, dated 2007).
